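Tested at 5 concentrations; 48 h exposure; 96-well plates; endpoints linearly interpolated, else capped at highest concentration. GI50 is the concentration that inhibits growth by half.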 Calls of active or inactive are those of the source. Cut-off read from the data, not from the text of the source: active = GI50 up to about 1.1 µM and inactive = higher.
Legend:
Test in all cases: DTP human tumour cell line panel, 48 h
[1] = tested on: Hs-578T
[2] = tested on: UACC-62
[3] = tested on: A549
[4] = tested on: SNB-19
[5] = tested on: HL-60
[6] = tested on: CCRF-CEM
[7] = tested on: HCT-116
[8] = tested on: HCC 2998
[9] = tested on: EKVX
[10] = tested on: BT-549
[11] = tested on: SF-295
[12] = tested on: MDA-MB-231
[13] = tested on: SF-539
[14] = tested on: 786-0
[15] = tested on: NCI-H522
[16] = tested on: MDA-MB-435
[17] = tested on: OVCAR-4
[18] = tested on: UACC-257
[19] = tested on: COLO 205
[20] = tested on: PC-3
[21] = tested on: MOLT-4
[22] = tested on: MDA-N
[23] = tested on: M14
[24] = tested on: SW-620
[25] = tested on: U-251
[26] = tested on: HOP-62
[27] = tested on: MCF7
[28] = tested on: HT-29
[29] = tested on: HCT-15
[30] = tested on: OVCAR-8
[31] = tested on: K562
[32] = tested on: NCI-H23
[33] = tested on: SN12C
[34] = tested on: SK-OV-3
[35] = tested on: LOX IMVI
[36] = tested on: NCI-H226
[37] = tested on: ACHN
[38] = tested on: UO-31
[39] = tested on: OVCAR-3
[40] = tested on: SK-MEL-28
[41] = tested on: DU-145
[42] = tested on: IGROV-1
[43] = tested on: SK-MEL-2
[44] = tested on: SNB-75
[45] = tested on: NCI/ADR-RES
[46] = tested on: OVCAR-5
[47] = tested on: SF-268
[48] = tested on: CAKI-1
[49] = tested on: HOP-92
[50] = tested on: SR
[51] = tested on: KM12
[52] = tested on: Malme-3M
[53] = tested on: NCI-H460
[54] = tested on: TK-10

Q: Which GI50 [1] does the source give for `COc1ccc(OC)c(NCC(=O)Nn2cnc3ccc(S(=O)(=O)Nc4cc(OC)ccc4OC)cc3c2=O)c1` here?
A: > 100 µM (inactive)

Q: And the GI50 [2]?
A: > 100 µM (inactive)

Q: And the GI50 [3]?
A: 90.8 µM (inactive)

Q: What about the GI50 [4] of the same compound?
A: > 100 µM (inactive)

Q: And the GI50 [5]?
A: 16.2 µM (inactive)

Q: And the GI50 [6]?
A: 35.5 µM (inactive)

Q: And the GI50 [7]?
A: 32.6 µM (inactive)

Q: What about the GI50 [8] of the same compound?
A: 37.2 µM (inactive)

Q: What about the GI50 [9] of the same compound?
A: > 100 µM (inactive)

Q: What about the GI50 [10] of the same compound?
A: > 100 µM (inactive)

Q: And the GI50 [11]?
A: 70.3 µM (inactive)

Q: What about the GI50 [12] of the same compound?
A: > 100 µM (inactive)

Q: And the GI50 [13]?
A: > 100 µM (inactive)

Q: And the GI50 [14]?
A: > 100 µM (inactive)

Q: And the GI50 [15]?
A: 40 µM (inactive)

Q: And the GI50 [16]?
A: 29.5 µM (inactive)

Q: And the GI50 [17]?
A: > 100 µM (inactive)

Q: What about the GI50 [18] of the same compound?
A: 82.6 µM (inactive)

Q: And the GI50 [19]?
A: > 100 µM (inactive)

Q: And the GI50 [20]?
A: 37.5 µM (inactive)

Q: What about the GI50 [21] of the same compound?
A: 31.2 µM (inactive)

Q: What about the GI50 [22] of the same compound?
A: 41.3 µM (inactive)

Q: And the GI50 [23]?
A: > 100 µM (inactive)

Q: What about the GI50 [24] of the same compound?
A: > 100 µM (inactive)

Q: And the GI50 [25]?
A: > 100 µM (inactive)

Q: What about the GI50 [26] of the same compound?
A: > 100 µM (inactive)

Q: And the GI50 [27]?
A: > 100 µM (inactive)

Q: And the GI50 [28]?
A: 45.5 µM (inactive)

Q: What about the GI50 [29] of the same compound?
A: > 100 µM

Q: And the GI50 [30]?
A: > 100 µM (inactive)

Q: And the GI50 [31]?
A: 44.3 µM (inactive)

Q: And the GI50 [32]?
A: 66.7 µM (inactive)

Q: What about the GI50 [33] of the same compound?
A: > 100 µM (inactive)

Q: What about the GI50 [34] of the same compound?
A: > 100 µM (inactive)

Q: What about the GI50 [35] of the same compound?
A: 41.1 µM (inactive)

Q: What about the GI50 [36] of the same compound?
A: > 100 µM (inactive)

Q: What about the GI50 [37] of the same compound?
A: > 100 µM (inactive)

Q: And the GI50 [38]?
A: 75.7 µM (inactive)

Q: And the GI50 [39]?
A: > 100 µM (inactive)

Q: And the GI50 [40]?
A: > 100 µM (inactive)

Q: What about the GI50 [41] of the same compound?
A: > 100 µM (inactive)

Q: What about the GI50 [42] of the same compound?
A: > 100 µM (inactive)

Q: And the GI50 [43]?
A: 35.4 µM (inactive)

Q: And the GI50 [44]?
A: > 100 µM (inactive)

Q: And the GI50 [45]?
A: > 100 µM (inactive)

Q: And the GI50 [46]?
A: > 100 µM (inactive)

Q: And the GI50 [47]?
A: > 100 µM (inactive)

Q: And the GI50 [48]?
A: > 100 µM (inactive)

Q: What about the GI50 [49] of the same compound?
A: > 100 µM (inactive)

Q: What about the GI50 [50] of the same compound?
A: 25.4 µM (inactive)

Q: And the GI50 [51]?
A: 46 µM (inactive)

Q: And the GI50 [52]?
A: > 100 µM (inactive)

Q: What about the GI50 [53] of the same compound?
A: 86.3 µM (inactive)

Q: What about the GI50 [54] of the same compound?
A: > 100 µM (inactive)

Reference: ChEMBL document CHEMBL1201862, “PubChem BioAssay data set” (2004)
